Test results published in patent publication EP0935963A2, “The use of MMP-13 selective inhibitors for the treatment of osteoarthritis and other matrix metalloproteinase-mediated disorders” (Pfizer Products Inc., priority 1997, dated 1999).
Read-outs that look alike come from different tables or passages of the source.

Experiments:
[1] = clinical trial data, Proceedings of ASCO, 15, 490 (1996); cited from earlier work
[2] = target: T1, MMP-13 (Homo sapiens, UniProt P45452); experiment: Inhibition of MMP-13, fluorescence assay; format: biochemical
Protocol: Human recombinant MMP-13 is activated with 2 mM APMA (p-aminophenyl mercuric acetate) for 1.5 hours, at 37°C and is then diluted to […] in assay buffer (50 mM Tris, pH 7.5, 200 mM sodium chloride, 5mM calcium chloride, 20µM zinc chloride, 0.02% Brij 35). Twenty-five microliters of diluted enzyme is added per well of a 96 well microfluor plate. The enzyme is then diluted in a 1:4 ratio in the assay by the addition of inhibitor and substrate to give a final concentration in the assay of 60 ng/ml.
Stock solutions (10 mM) of inhibitors are made up in dimethylsulfoxide and then diluted in assay buffer as per the inhibitor dilution scheme for inhibition of human collagenase-1. Twenty-five microliters of each concentration is added to triplicate wells of a microfluor plate. The final concentrations in the assay are 30 µM, 3 µM, 0.3 µM, and 0.03 µM.
Substrate (Dnp-Pro-Cha-Gly-Cys(Me)-His-Ala-Lys(NMA)-NH2) is prepared as for inhibition of human collagenase (MMP-1) and […] is added to each well to give a final assay concentration of 10 µM. Fluorescence readings (360 nm excitation; 450 nm emission) are taken at time 0 and every 5 minutes for 1 hour.
Positive controls and negative controls are set up in triplicate as outlined in the MMP-1 assay.
IC50's are determined as per inhibition of human collagenase (MMP-1). If IC50's are reported to be less than […], inhibitors are then assayed at final concentrations of 0.3 µM, 0.03 µM, 0.003 µM and 0.0003 µM.

[3] = test system: cartilage conditioned medium collagenase activity; experiment: Collagen film assay with cartilage conditioned medium as enzyme source; format: biochemical
Protocol: (§1) Rat type I collagen is radiolabeled with ^14C acetic anhydride (T.E. Cawston and A.J. Barrett, Anal. Biochem., 99, 340-345 (1979)) and used to prepare 96 well plates containing radiolabeled collagen films (Barbara Johnson-Wint, Anal. Biochem., 104, 175-181 (1980)). When a solution containing collagenase is added to the well, the enzyme cleaves the insoluble collagen which unwinds and is thus solubilized. Collagenase activity is directly proportional to the amount of collagen solubilized, determined by the proportion of radioactivity released into the supernatant as measured in a standard scintillation counter. Collagenase inhibitors are, therefore, compounds which reduce the radioactive counts released with respect to the controls with no inhibitor present. One specific embodiment of this assay is described in detail below.
(§2) Stock solutions of test compound (10mM) in dimethylsulfoxide are prepared. Dilutions of the test compounds in the Tris buffer, above, are made to 0.2, 2.0, 20, 200, 2000 and 20000 nM.
(§3) 100 µl of appropriate drug dilution and 100 µl of diluted enzyme are pipetted into wells of a 96 well plate containing collagen films labeled with ^14C-collagen. The final enzyme concentration is 0.3 µg/ml while the final drug concentration is 0.1, 1.0, 10, 100, 1000 nM. Each drug concentration and control is analyzed in triplicate. Triplicate controls are also run for the conditions in which no enzyme is present and for enzyme in the absence of any compound.
(§4) The plates are incubated at 37°C for a time period such that around 30 - 50% of the available collagen is solubilized - determined by counting additional control wells at various time points. In most cases around 9 hours of incubation are required. When the assay has progressed sufficiently, the supernatant from each well is removed and counted in a scintillation counter. The background counts (determined by the counts in the wells with no enzyme) are subtracted from each sample and the % release calculated in relation to the wells with enzyme only and no inhibitor. The triplicate values for each point are averaged and the data graphed as percent release versus drug concentration. IC50's are determined from the point at which 50% inhibition of release of radiolabeled collagen is obtained.
To determine the identity of the active collagenases in cartilage conditioned medium, assays were carried out using collagen as a substrate, cartilage conditioned medium containing collagenase activity and inhibtors of varying selectivity. The cartilage conditioned medium was collected during the time at which collagen degradation was occurring and thus is representative of the collagenases responsible for the collagen breakdown. Assays were carried out as outlined above except that instead of using recombinant MMP-13 or recombinant MMP-1, cartilage conditioned medium was the enzyme source. […]

[4] = target: T1, MMP-13; experiment: biochemical
Protocol: as §1, with “Collagenase activity is directly proportional to the amount of collagen solubilized, determined by the proportion of radioactivity released into the supernatant as measured in a standard scintillation counter.” left out
(§5) For determining the selectivity of compounds for MMP-13 versus MMP-1 using collagen as a substrate, the following procedure is used. Recombinant human proMMP-13 or proMMP-1 is activated according to the procedures outlined in Experiment 1. The activated MMP-13 or MMP-1 is diluted to 0.6 ug/ml with buffer ( 50 mM Tris pH 7.5, 150 mM NaCI, 10 mM CaCl2, 1 uM ZnCl2, 0.05% Brij-35, 0.02% sodium azide).
as §2, §3, §4

[5] = test system: bovine nasal cartilage explants; experiment: IL-1 Induced Cartilage Collagen Degradation From Bovine Nasal Cartilage (cartilage explant assay); format: cell-based; details: Bos taurus
From the text: This assay uses bovine nasal cartilage explants which are commonly used to test the efficacy of various compounds to inhibit either IL-1 induced proteoglycan degradation or IL-1 induced collagen degradation. Bovine nasal cartilage is a tissue that is very similar to articular cartilage, i.e. chondrocytes surrounded by a matrix that is primarily type II collagen and aggrecan. The tissue is used because it: (1) is very similar to articular cartilage, (2) is readily available, (3) is relatively homogeneous, and (4) degrades with predictable kinetics after IL-1 stimulation.
Two variations of this assay have been used to assay compounds. Both variations give similar data. The two variations are described below:
Three plugs of bovine nasal cartilage (approximately 2 mm diameter x 1.5 mm long) are placed into each well of a 24 well tissue culture plate. One ml of serumless medium is then added to each well. Compounds are prepared as 10 mM stock solutions in DMSO and then diluted appropriately in serumless medium to final concentrations, e.g., 50, 500 and 5000 nM. Each concentration is assayed in triplicate.
Human recombinant IL-1α (5ng/mL) (IL-1) is added to triplicate control wells and to each well containing drug. Triplicate control wells are also set up in which neither drug nor IL-1 are added. The medium is removed and fresh medium containing IL-1 and the appropriate drug concentrations is added on days 6, 12, 18 and 24 or every 3 - 4 days if necessary. The media removed at each time point is stored at -20°C for later analysis. When the cartilage in the IL-1 alone wells has almost completely resorbed (about day 21), the experiment is terminated. The medium, is removed and stored. Aliquots (100 ul) from each well at each time point are pooled, digested with papain and then analyzed for hydroxyproline content. Background hydroxyproline (average of wells with no IL-1 and no drug) is subtracted from each data point and the average calculated for each triplicate. The data is then expressed as a percent of the IL-1 alone average value and plotted. The IC50 is determined from this plot.
The experimental set-up is the same as outlined above in Variation 1, until day 12. On day 12, the conditioned medium from each well is removed and frozen. Then one ml of phosphate buffered saline (PBS) containing 0.5 µg/ml trypsin is added to each well and incubation continued for a further 48 hours at 37°C. After 48 hours incubation in trypsin, the PBS solution is removed. Aliquots (50 µl) of the PBS/trypsin solution and the previous two time points (days 6 and 12) are pooled. hydrolyzed and hydroxyproline content determined. Background hydroxyproline (average of wells with no IL-1 and no drug) is subtracted from each data point and the average calculated for each triplicate. The data is then expressed as a percent of the IL-1 alone average value and plotted. The IC50 is determined from this plot. In this variation, the time course of the experiment is shortened considerably. The addition of trypsin for 48 hours after 12 days of IL-1 stimulation likely releases any type II collagen that has been damaged by collagenase activity but not yet released from the cartilage matrix. In the absence of IL-1 stimulation, trypsin treatment produces only low background levels of collagen degradation in the cartilage explants.

[6] = target: T2, MMP-1 (Homo sapiens, UniProt P03956); experiment: biochemical
T2 sequence (P03956 100-469): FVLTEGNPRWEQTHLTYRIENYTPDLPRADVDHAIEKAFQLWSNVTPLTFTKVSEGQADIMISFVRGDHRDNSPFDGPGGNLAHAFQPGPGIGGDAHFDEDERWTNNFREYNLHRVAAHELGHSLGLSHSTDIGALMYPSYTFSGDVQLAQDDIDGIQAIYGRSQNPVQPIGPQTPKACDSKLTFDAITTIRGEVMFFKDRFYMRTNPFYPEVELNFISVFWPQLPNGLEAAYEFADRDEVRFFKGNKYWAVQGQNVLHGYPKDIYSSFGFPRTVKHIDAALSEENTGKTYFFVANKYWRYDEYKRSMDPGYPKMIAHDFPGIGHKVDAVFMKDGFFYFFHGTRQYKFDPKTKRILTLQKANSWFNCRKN
Protocol: as §1, with “Collagenase activity is directly proportional to the amount of collagen solubilized, determined by the proportion of radioactivity released into the supernatant as measured in a standard scintillation counter.” left out
as §5, §2, §3, §4

[7] = target: T3, Human recombinant collagenase-1 (Homo sapiens, UniProt P03956); experiment: Inhibition of Human Collagenase (MMP-1), fluorescence assay; format: biochemical
T3 sequence (P03956 100-469): T2 sequence (P03956 100-469)
Protocol: Human recombinant collagenase-1 is activated with trypsin.
The final concentration of inhibitor will be a 1:4 dilution after addition of enzyme and substrate.
Final concentration of collagenase in the assay is 60 ng/ml.
Fluorescence versus time is then plotted for both the blank and collagenase containing samples (data from triplicate determinations is averaged). […] The zero time is used as a blank for each compound at each concentration and these values are subtracted from the 120 minute data.

[8] = Table 2, collagen film substrate
[9] = Table 3 (repeated for comparison)
[10] = 504 h, Variation 1: IL-1 stimulation until about day 21, hydroxyproline content, read-out: Cartilage Explant Assay IC50 Variation 1
[11] = read-out: Average IC50 (variation 1 and 2), average of variation 1 and 2
[12] = Variation 2: 12 days IL-1, then trypsin 48 hours, hydroxyproline content, read-out: Cartilage Explant Assay IC50 Variation 2

Row | SMILES | connective tissue side effects [1] | IC50 [2] | inhibition of the cartilage conditioned medium collagenase activity (in words) [3] | IC50 [3, 8] | IC50 [3, 9] | IC50 [4] | IC50 [5, 10] | IC50 [5, 11] | IC50 [5, 12] | IC50 ([2]; fluorescent peptide substrate, read-out: MMP-13 Fluor. IC50) | IC50 ([6]; Table 2, type I collagen film substrate, read-out: MMP-1 Type I Collagen IC50) | IC50 ([4]; Table 2, type I collagen film substrate, read-out: MMP-13 Type 1 Collagen IC50) | IC50 ([7]; fluorescent peptide substrate, read-out: MMP-1 Fluor. IC50) | IC50 [6] | IC50 [7]
1 | CNC(=O)[C@@H](NC(=O)[C@H](CC(C)C)[C@H](O)C(=O)NO)C(C)(C)C [marimastat] | significant dose-related connective tissue side effects |  |  |  |  |  |  |  |  |  |  |  |  |  | 
2 | CNC(=O)[C@H](Cc1ccc(OC)cc1)NC(=O)C(CC(=O)NO)CC(C)C (stereo partly drawn) [Example 1, reference compound] |  | 1.5 nM | potent inhibitor | 10 nM | 10 nM | 1.5 nM | 60 nM | 90 nM | 50 nM |  |  |  |  |  | 
3 | O=C(CN(Cc1cccnc1)S(=O)(=O)c1ccc(OCc2ccccc2)cc1)NO [Example 2] |  |  | potent inhibitors | 220 nM | 220 nM |  | 900 nM | 725 nM | 550 nM | 5.4 nM | 22 µM | 52 nM | 17.7 µM |  | 
4 | CNC(=O)C(Cc1ccc(OC)cc1)NC(=O)C(CCCCOc1ccccc1)CP(=O)(O)Cc1ccc(Cc2ccccc2)cc1 (stereo not drawn) [Example 3] |  | 70 nM | potent inhibitors | 400 nM | 400 nM | 40 nM |  |  | 830 nM |  |  |  |  | 40 µM | 21.7 µM
